Reference: US10143666B2, “Small molecule inhibitors targeting CAG-repeat RNA toxicity in polyglutamine diseases” (The Chinese University of Hong Kong, priority 2015, dated 2018)

Tested on: EGFPCAG78 RNA expressing SK-N-MC cells
Test: LDH cytotoxicity assay, EGFPCAG78 RNA expressing SK-N-MC cells
Type: cell-based, human
Settings: 72 hours post-transfection and treatment
Procedure: It was next investigated whether DB213 could mitigate expanded CAG-repeat RNA-mediated toxicity in SK-N-MC human neuronal cell. […] Taken together, DB213 could suppress the expanded CAG RNA-mediated but not polyQ protein-mediate toxicity in human neuronal cell.
SK-N-MC human neuronal cells were seeded on a 24-well plate and lactate dehydrogenase enzyme activity in the cell culture medium was measured 72 hours post-transfection and drugs treatment using the Cytotox 96 non-radioactive cytotoxicity assay (Promega).

CN(C)CCNC(=N)c1ccc(C(=N)NCCN(C)C)cc1.Cl.Cl.Cl.Cl [DB213_D1]
Cell death induced by EGFPCAG78 RNA (LDH assay): did not rescue the cell death
